{"source": "patent US9339458B2", "about": "“Use of vaginal insulin sensitizing agents” (ITF RESEARCH PHARMA, S.L.U., priority 2009, dated 2016)", "key": {"[1]": {"system": "non-insulin dependent model for polycystic ovary syndrome (PCOS) induced by dehydroepiandrosterone (DHEA) in rats", "assay": "Concentration of testosterone in plasma, DHEA-induced PCOS model in rats", "format": "in vivo, Sprague-Dawley rats", "experimental": "(§1) The study objective was to assess the effect of metformin in a non-insulin dependent model for polycystic ovary syndrome (PCOS) induced by dehydroepiandrosterone (DHEA) in rats.\n(§2) The formulations to be tested were: • Gels with Metformin at a concentration of 2 mg/mL (FT-147), 20 mg/mL (FT-148) and 200 mg/mL (FT-149). • Gel without Metformin (Placebo; FT-150).\n(§3) Female 2-3 weeks-old Sprague-Dawley rats were used.\n(§4) Four experimental groups with 8 animals each were used in the study: • Group A: Control=Placebo+DHEA • Group B: Dose 1 Trial Substance (0.016 mg/animal)+DHEA • Group C: Dose 2 Trial Substance (0.16 mg/animal)+DHEA • Group D: Dose 3 Trial Substance (1.6 mg/animal)+DHEA\nEach animal's dose was calculated based on the concentration of each formulation and the administration volume: • Dose 1: formulation of 2 mg/mL with administration of 8 μl/animal=0.016 mg/animal • Dose 2: formulation of 20 mg/mL with administration of 8 μl/animal=0.16 mg/animal • Dose 3: formulation of 200 mg/mL with administration of 8 μl/animal=1.6 mg/animal […]\nPlasma was obtained from each blood sample by centrifugation at 5000 g for 5 minutes, which was frozen for later assessment (quantitative determinations) of testosterone levels by rat-specific commercial immunoassay kits (EIA).\nTestosterone concentrations in the plasma samples from all animals were determined at the end of the study (Day 15)."}, "[2]": {"system": "non-insulin dependent model for polycystic ovary syndrome (PCOS) induced by dehydroepiandrosterone (DHEA) in rats", "assay": "Histological assessment of ovaries (no. of atretic follicles), DHEA-induced PCOS model in rats", "format": "in vivo, Sprague-Dawley rats", "experimental": "as §1, §2, §3, §4\nEach animal's dose was calculated based on the concentration of each formulation and the administration volume: • Dose 1: formulation of 2 mg/mL with administration of 8 μl/animal=0.016 mg/animal • Dose 2: formulation of 20 mg/mL with administration of 8 μl/animal=0.16 mg/animal • Dose 3: formulation of 200 mg/mL with administration of 8 μl/animal=1.6 mg/animal\nThe trial substance (doses of 0.016, 0.16 and 1.6 mg/animal) and the control substance were administered intravaginally as an aqueous gel at a volume of 8 μl/animal.\nThe DHEA solution was prepared in a sesame seed oil prior to administration and was injected subcutaneously in a skin fold in the posterior thoracic area (dorsal) at a volume of 0.2 mL. […]"}}}
{"smiles": "CN(C)C(=N)NC(=N)N", "note": "[metformin, N,N-dimethylimidodicarbonimidic diamide]", "values": [{"measurement": "Testosterone plasma levels versus control group", "setting": "[1]; high dose, intravaginal", "value": "very significant reduction"}, {"measurement": "Plasma levels of testosterone", "setting": "[1]; vaginal administration", "value": "significantly decreases"}, {"measurement": "Number of atretic follicles versus control group", "setting": "[2]; intermediate dose, intravaginal", "value": "significant reduction"}, {"measurement": "Number of atretic follicles in the polycystic ovaries", "setting": "[2]; vaginal administration", "value": "a decrease"}]}
